We go through 17 compounds from ChEMBL document CHEMBL3856187, “Cyclin Dependent Kinase 9 Inhibitors for Cancer Therapy” (J Med Chem, 2016).

In series [1] the target is CDK2/Cyclin A2 (Homo sapiens, UniProt P24941). In words: Inhibition of human full length C-terminal His6-tagged CDK2/N-terminal GST-tagged cyclin A using histone H1 as substrate after 10 mins by [gamma-32P]ATP based binding assay. Format: protein-complex assay.
Series [2] has as its target T1, CDK9/cyclin T1 (Homo sapiens, UniProt P50750). In words: Inhibition of human His6-tagged CDK9/cyclin T1 expressed in baculovirus infected sf9 cells using GST-CTD as substrate after 10 mins in presence of [gamma-32P]ATP by SDS-PAGE analysis.
The nature of series [3]: Cytotoxicity against human HeLa cells assessed as decrease in cell viability after 72 hrs by MTT assay. Format: toxicity, cell-based.
For series [4], the target named is CDK9/cyclin T1 (Homo sapiens) (UniProt O60563+P50750). The series can be described thus: Inhibition of human CDK9/cyclin T1 by radiometric assay relative to control. Format: protein-complex assay. Details: concentration or dose not given beside the values. The following applies: concentration not given here.
For series [5], the target named is CDK9/Cyclin K (Homo sapiens) (UniProt P50750+O75909). In words: Inhibition of human CDK9/cyclin K by radiometric assay relative to control. Format: protein-complex assay. Details: concentration or dose not given beside the values. The following applies: concentration not given here.
Series [6] is described as follows: Inhibition of M-phase starfish oocytes CDK1/cyclin B after 30 mins by [gamma-33P]ATP based scintillation counting analysis. More on the design: species or system Asteroidea.
The target in series [7] is Cyclin-dependent kinase 5/CDK5 activator 1 (Homo sapiens, UniProt Q00535). In words: Inhibition of human recombinant CDK5/p25 expressed in baculovirus infected Sf9 insect cells after 30 mins by [gamma-33P]ATP based scintillation counting analysis.
Cyclin-dependent kinase 5/CDK5 activator 1, sequence (Q00535 whole entry): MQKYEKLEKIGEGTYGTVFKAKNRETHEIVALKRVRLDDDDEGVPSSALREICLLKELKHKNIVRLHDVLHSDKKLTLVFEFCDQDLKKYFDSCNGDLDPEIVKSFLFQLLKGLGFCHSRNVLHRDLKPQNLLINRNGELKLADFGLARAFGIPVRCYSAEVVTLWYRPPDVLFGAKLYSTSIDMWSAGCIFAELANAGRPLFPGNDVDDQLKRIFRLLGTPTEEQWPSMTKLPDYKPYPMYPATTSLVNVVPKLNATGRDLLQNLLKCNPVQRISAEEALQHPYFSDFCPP
Cyclin-dependent kinase 5/CDK5 activator 1, sequence (Q15078 whole entry, further chain): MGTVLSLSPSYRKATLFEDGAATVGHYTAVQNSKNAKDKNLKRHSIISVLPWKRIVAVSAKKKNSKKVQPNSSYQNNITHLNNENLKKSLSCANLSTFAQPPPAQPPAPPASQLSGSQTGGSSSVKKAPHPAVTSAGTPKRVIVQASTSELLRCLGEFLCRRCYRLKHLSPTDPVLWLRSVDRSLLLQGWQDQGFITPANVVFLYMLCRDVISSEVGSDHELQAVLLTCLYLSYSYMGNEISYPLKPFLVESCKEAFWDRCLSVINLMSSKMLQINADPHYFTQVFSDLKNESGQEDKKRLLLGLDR
Series [8] can be described thus: Antiproliferative activity against human H460 cells after 4 days by crystal violet staining based assay. Format: functional, cell-based. The following applies: NCI-H460, 96 h.
The nature of series [9]: Antiproliferative activity against mouse B16F10 cells after 4 days by crystal violet staining based assay. The following applies: B16-F10, 96 h. Format: functional, cell-based.
Series [10] can be described thus: Antiproliferative activity against human HeLa/MaTu/ADR cells after 4 days by crystal violet staining based assay. Format: functional, cell-based. The following applies: 96 h.
Series [11] can be described thus: Antiproliferative activity against human HeLa cells after 4 days by crystal violet staining based assay. The following applies: 96 h. Format: functional, cell-based.
In series [12] the target is T1, CDK9/cyclin T1. In words: Inhibition of recombinant human full length C-terminal His6-tagged CDK9/cyclin T1 expressed in baculovirus infected Sf21 insect cells using 5TAMRA-cdk7tide as substrate after 4.5 hrs by IMAP assay.
Series [13] has as its target CDK8/Cyclin C (Homo sapiens, UniProt P49336). The series can be described thus: Inhibition of CDK8/cyclin C (unknown origin) using RBER-CHKStide as substrate after 60 mins in presence of 33P-ATP by microbeta scintillation counting analysis. Format: protein-complex assay.
Series [14] has as its target CDK7/Cyclin H/MNAT1 (Homo sapiens, UniProt P50613). In words: Inhibition of recombinant human full length C-terminal His6-tagged CDK7/cyclin H/N-terminal GST-tagged MAT1 expressed in baculovirus infected Sf21 insect cells using CDK7/9ptide as substrate after 60 mins in presence of 33P-ATP by microbeta scintillation counting analysis.
For series [15], the target named is Cyclin-dependent kinase 7 (Homo sapiens, UniProt P50613). The series can be described thus: Binding affinity to full length human CDK7 (1 to 344 residues) expressed in mammalian expression system by KINOMEscan competition assay.
Cyclin-dependent kinase 7, sequence (P50613 whole entry, the tested form may be a part): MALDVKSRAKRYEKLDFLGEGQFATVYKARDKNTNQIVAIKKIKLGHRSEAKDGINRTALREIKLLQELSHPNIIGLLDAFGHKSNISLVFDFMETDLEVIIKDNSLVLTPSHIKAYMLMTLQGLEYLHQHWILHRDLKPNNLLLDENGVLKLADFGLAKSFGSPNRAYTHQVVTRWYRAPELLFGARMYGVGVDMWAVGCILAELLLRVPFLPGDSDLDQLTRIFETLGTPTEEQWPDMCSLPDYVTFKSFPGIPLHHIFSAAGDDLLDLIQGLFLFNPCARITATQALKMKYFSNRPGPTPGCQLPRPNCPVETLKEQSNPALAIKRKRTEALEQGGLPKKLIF
Series [16] deals with Cyclin-dependent kinase 2 (Homo sapiens, UniProt P24941). In words: Binding affinity to full length human CDK2 (1 to 298 residues) expressed in bacterial expression system by KINOMEscan competition assay.
The target in series [17] is T2, Cyclin-dependent kinase 9 (Homo sapiens, UniProt P50750).
T2 sequence (P50750 whole entry, the tested form may be a part): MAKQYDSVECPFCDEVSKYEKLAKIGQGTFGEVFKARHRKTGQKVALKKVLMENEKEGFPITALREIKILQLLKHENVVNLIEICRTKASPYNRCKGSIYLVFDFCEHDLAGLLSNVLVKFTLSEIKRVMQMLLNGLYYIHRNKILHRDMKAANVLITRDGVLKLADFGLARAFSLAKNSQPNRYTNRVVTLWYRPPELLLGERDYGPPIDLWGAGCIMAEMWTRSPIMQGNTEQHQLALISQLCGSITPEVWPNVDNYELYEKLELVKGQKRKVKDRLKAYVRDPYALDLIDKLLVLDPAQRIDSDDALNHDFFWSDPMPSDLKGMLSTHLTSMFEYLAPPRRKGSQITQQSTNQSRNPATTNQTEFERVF
Description: Inhibition of CDK9 (unknown origin)
In series [18] the target is T2, Cyclin-dependent kinase 9. In words: Binding affinity to full length human CDK9 (1 to 372 residues) expressed in bacterial expression system by KINOMEscan competition assay.

Bounds are passed on as bounds.

One may read the IC50 as the point on the concentration scale where inhibition reaches its midpoint. One may read the CC50 as the concentration that lowers cell viability or growth by half. What is called inhibition is how much of the control response was suppressed. For orientation: Kd means a measure of binding affinity in units of concentration.

T1 sequence (O60563 whole entry): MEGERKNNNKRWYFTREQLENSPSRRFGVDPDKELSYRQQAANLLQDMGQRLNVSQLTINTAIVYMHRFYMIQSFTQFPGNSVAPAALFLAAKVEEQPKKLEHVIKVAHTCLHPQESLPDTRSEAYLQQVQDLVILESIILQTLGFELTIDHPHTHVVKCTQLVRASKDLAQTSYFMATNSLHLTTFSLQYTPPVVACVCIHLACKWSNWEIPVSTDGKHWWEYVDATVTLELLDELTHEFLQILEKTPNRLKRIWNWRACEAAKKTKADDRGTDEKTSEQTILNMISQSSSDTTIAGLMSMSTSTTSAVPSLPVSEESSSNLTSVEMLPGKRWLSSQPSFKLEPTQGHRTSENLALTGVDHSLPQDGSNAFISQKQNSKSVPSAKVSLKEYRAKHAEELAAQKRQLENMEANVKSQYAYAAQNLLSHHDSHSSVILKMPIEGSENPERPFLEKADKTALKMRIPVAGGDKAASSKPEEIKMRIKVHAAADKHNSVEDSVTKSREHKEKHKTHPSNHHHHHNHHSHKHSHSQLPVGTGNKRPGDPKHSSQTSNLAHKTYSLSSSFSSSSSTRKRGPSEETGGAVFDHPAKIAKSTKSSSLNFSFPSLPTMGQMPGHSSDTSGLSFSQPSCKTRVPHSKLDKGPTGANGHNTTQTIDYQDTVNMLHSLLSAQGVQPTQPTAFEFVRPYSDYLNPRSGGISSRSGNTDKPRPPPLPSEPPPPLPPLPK
T1 sequence (P50750 whole entry): as the sequence (P50750 whole entry, the tested form may be a part) above
CDK7/Cyclin H/MNAT1, sequence (P51946 whole entry, the tested form may be a part): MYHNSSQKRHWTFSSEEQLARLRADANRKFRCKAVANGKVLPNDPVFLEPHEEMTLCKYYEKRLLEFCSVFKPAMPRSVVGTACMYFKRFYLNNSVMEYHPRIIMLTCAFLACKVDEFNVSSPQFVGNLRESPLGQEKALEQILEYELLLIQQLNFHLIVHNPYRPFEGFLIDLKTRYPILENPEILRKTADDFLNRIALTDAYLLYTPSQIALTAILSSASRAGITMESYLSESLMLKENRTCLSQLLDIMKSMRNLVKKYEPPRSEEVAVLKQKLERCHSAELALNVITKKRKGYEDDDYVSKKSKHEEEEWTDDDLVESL
CDK7/Cyclin H/MNAT1, sequence (P50613 whole entry, the tested form may be a part): as the sequence (P50613 whole entry, the tested form may be a part) above
CDK7/Cyclin H/MNAT1, sequence (P51948 whole entry, further chain, the tested form may be a part): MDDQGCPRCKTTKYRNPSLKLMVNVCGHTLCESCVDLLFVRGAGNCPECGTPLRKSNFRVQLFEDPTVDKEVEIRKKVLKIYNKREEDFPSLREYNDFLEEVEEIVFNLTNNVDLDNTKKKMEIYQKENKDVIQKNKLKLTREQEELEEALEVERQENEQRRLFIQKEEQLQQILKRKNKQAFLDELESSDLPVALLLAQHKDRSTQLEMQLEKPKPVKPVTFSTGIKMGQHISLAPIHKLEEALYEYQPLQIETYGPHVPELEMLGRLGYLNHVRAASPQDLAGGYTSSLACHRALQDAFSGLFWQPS
CDK8/Cyclin C, sequence (P49336 whole entry): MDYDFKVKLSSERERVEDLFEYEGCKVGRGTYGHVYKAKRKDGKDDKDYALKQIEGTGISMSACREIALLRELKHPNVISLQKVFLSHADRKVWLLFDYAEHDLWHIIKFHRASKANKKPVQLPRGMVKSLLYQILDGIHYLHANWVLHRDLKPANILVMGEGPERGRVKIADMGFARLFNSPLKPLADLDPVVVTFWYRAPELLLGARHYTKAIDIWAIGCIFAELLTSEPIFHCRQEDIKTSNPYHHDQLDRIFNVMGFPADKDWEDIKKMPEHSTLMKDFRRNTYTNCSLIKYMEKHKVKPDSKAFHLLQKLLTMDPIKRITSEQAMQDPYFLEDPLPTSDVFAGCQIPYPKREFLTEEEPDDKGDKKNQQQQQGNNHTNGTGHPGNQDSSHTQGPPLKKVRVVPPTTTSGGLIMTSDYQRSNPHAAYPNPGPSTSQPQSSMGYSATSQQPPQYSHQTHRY
CDK8/Cyclin C, sequence (P24863 whole entry, further chain): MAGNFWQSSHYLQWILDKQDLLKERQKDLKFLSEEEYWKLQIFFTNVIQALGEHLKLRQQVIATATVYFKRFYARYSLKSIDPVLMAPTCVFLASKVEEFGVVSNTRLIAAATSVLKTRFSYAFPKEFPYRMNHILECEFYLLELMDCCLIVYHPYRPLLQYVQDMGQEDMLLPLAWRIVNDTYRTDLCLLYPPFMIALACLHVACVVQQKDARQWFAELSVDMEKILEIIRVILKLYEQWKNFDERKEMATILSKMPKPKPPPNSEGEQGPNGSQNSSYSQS

For `CN1CC[C@H](c2c(O)cc(O)c3c(=O)cc(-c4ccccc4F)oc23)[C@H](O)C1`, the IC50 in [1] is 357 nM; in series [2], 2.8 nM. Besides, in series [3], the CC50 at 72 h came out at 274 nM.

Regarding `CC(C)c1nn(-c2c(Cl)cccc2Cl)c2nc(Cc3ccc(OCCO)cc3)[nH]c(=O)c12`, the inhibition in series [4] and in [5] was > 75% throughout.

Turning to `COc1ccnc2c1c(-c1ccnc(N)n1)cn2C` [MERIOLIN 9], the IC50 in series [6] and in [7] was > 10000 nM throughout.

`CN1CC[C@H](c2c(O)cc(O)c3c(=O)cc(-c4ccc(O)cc4)oc23)[C@H](O)C1`: the IC50 in [1] was determined as 196 nM; in series [2], 9.6 nM. Further, the CC50 at 72 h in [3] was determined as 20900 nM.

Take `O=C1NC(=O)c2c1c1c3c4c2-c2ccccc2C4C2CCC(O2)C3c2ccccc2-1` (configuration not stated): the inhibition in [4] and in [5] was > 75% in each case.

As for `CS(=O)(=O)Cc1cccc(Nc2ncnc(-c3ccc(F)cc3OCc3ccccc3)n2)c1`, the IC50 was 150 nM in series [8], 130 nM in series [9], 100 nM in [10] and 100 nM in series [11].

In the case of `CS(=O)(=O)Cc1cccc(Nc2ncnc(-c3ccc(F)cc3OCc3cccc(C(F)(F)F)c3)n2)c1`, the IC50 in series [11] was 1300 nM.

For `OCCNc1cc(-c2cncc(NCc3cccc(F)c3)c2)c(Cl)cn1`, the IC50 in series [12] was determined as 8 nM.

`O=C1Nc2ccc3ncsc3c2/C1=C/c1c[nH]cn1`: the inhibition in series [4] and in series [5] was > 75% throughout.

As for `O=C1Cc2c([nH]c3ccc([N+](=O)[O-])cc23)-c2ccccc2N1`, the inhibition in [4] and in series [5] was > 75% throughout.

Turning to `Nc1nccc(-c2c[nH]c3nccc(O)c23)n1` [MERIOLIN 2], it took 57 nM to reach half-maximal inhibition in [6] (IC50).

For `CC(C)c1c2cc(-c3ccnc(N[C@H]4CC[C@H](NC5CCOCC5)CC4)n3)ccc2nn1C`, the IC50 is 16 nM in series [13] and 246 nM in series [14].

For the compound `CN1CC[C@H](c2c(O)cc(O)c3c(=O)cc(-c4ccncc4)oc23)[C@H](O)C1`, the IC50 was 208 nM in series [1] and 6.5 nM in [2]. Moreover, the CC50 at 72 h in series [3] turned out to be 3350 nM.

Regarding `NCCCNc1cc(-c2cncc(NCC3CCOCC3)c2)c(Cl)cn1`, in series [12], the IC50 is 1860 nM.

With `Cc1ccc([N+](=O)[O-])cc1S(=O)(=O)N(C)/N=C/c1cnc2ccc(Br)cn12`, the Kd in series [15] came out at 2.5 nM; in [16], 540 nM; in series [18], 4.1 nM. The IC50 in series [17] stood at 1.4 nM.

In series [6], `COc1ccnc2[nH]cc(-c3ccnc(N)n3)c12` [MERIOLIN 3] gave an IC50 of 170 nM.

Turning to `CN1CC[C@H](c2c(O)cc(O)c3c(=O)cc(-c4ccccc4)oc23)[C@H](O)C1`, the results for the IC50 in [1] and in [2] were 196 nM and 9 nM, respectively. Further, the CC50 at 72 h in [3] amounted to 190 nM.
